Consider 1 molecule from ChEMBL document CHEMBL5380843 (J Med Chem, 2023).

A short description of data set [1]: Acute toxicity in 12 hr fasted female CD-1(ICR) mouse assessed as changes in body weight at 2 g/Kg, IG measured after 14 days. The conditions noted are these: in vivo, po, 2000 mg/kg, 336 h, time 14 day.
The test system of data set [2] is Human immunodeficiency virus 1. Briefly: Antiviral activity against wild type HIV-1 IIIB harboring reverse transcriptase Y188L mutant infected in human MT4 cells assessed as protection against virus-induced cytopathic effect incubated for 5 days by MTT assay. Format: functional, organism-based. Particulars: Human immunodeficiency virus 1, IIIB, MT4, 120 h. On the technique in general: Cytopathic effects are the visible damage that an infection or toxin causes in cultured cells.

Data set [3] can be described thus: Tmax in Sprague-Dawley rat at 10 mg/kg, po measured upto 24 hrs by LC-MS/MS analysis. The format is ADME, organism-based. The conditions noted are these: in vivo.
The target of the next data set is T1, Cytochrome P450 1A2 (Homo sapiens, UniProt P05177).
T1 sequence (P05177 whole entry): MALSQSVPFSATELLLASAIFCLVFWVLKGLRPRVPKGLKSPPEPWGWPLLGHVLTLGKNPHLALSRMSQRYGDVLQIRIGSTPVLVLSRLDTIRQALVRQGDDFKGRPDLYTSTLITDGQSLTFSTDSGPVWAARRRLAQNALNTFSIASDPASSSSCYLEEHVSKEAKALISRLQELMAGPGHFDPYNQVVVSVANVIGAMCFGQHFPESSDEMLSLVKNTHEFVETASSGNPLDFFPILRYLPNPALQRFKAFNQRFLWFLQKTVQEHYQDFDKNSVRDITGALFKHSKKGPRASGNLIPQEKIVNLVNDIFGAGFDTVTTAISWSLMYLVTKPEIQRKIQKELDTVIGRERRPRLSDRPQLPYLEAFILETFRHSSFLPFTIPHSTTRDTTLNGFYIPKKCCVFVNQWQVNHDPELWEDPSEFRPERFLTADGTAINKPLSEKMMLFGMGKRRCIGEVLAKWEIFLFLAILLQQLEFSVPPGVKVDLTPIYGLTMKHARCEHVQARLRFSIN
Briefly: Inhibition of CYP1A2 in human liver microsomes using phenacetin as substrate incubated for 15 to 45 mins in presence of NADPH. The format is ADME, Microsome. A general note: Liver microsomes are vesicles of endoplasmic reticulum, rich in cytochrome P450 enzymes.

The nature of data set [4]: Resistant factor, ratio of EC50 for antiviral activity against HIV-1 IIIB harboring reverse transcriptase E138K mutant to EC50 for antiviral activity against wild type HIV-1 IIIB. The format is functional.
The target of data set [5] is Human immunodeficiency virus type 1 reverse transcriptase (Human immunodeficiency virus 1, UniProt Q72547). Briefly: Inhibition of recombinant wild type HIV-1 reverse transcriptase using DNA/RNA as substrate incubated for 40 mins by Pico-green dye based spectrofluorometric analysis.
Data set [6] can be described thus: Selectivity index, ratio of CC50 for cytotoxicity against human MT4 cells to EC50 for antiviral activity against wild type HIV-1 IIIB infected in human MT4 cells. Particulars: read-out: Ratio CC50/EC50. The format is toxicity, cell-based.
A short description of data set [7]: Acute toxicity in 12 hr fasted female CD-1(ICR) mouse assessed as pathological damage in spleen at 2 g/Kg, IG measured after 14 days by H and E staining based analysis. The format is tissue-based. Particulars: in vivo, po, 2000 mg/kg, 336 h, time 14 day.
A further data set deals with Cytochrome P450 2C9 (Homo sapiens, UniProt P11712). Briefly: Inhibition of CYP2C9 in human liver microsomes using tolbutamide as substrate incubated for 15 to 45 mins in presence of NADPH.
Sequence of Cytochrome P450 2C9 (P11712 whole entry): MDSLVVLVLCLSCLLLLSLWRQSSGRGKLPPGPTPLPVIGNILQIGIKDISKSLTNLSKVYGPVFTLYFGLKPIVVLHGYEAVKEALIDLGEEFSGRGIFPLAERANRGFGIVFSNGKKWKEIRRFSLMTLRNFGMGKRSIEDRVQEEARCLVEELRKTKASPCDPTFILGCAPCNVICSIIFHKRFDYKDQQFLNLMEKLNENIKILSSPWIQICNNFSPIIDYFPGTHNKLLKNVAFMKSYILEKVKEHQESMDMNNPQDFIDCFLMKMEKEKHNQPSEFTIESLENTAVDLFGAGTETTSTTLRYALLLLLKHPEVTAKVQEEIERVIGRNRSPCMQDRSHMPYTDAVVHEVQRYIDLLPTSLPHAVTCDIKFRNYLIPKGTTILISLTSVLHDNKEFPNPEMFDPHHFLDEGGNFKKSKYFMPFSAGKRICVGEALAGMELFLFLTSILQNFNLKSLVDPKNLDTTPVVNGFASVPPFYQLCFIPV
Data set [8] can be described thus: MRT (0 to infinity) in Sprague-Dawley rat at 10 mg/kg, po measured upto 24 hrs by LC-MS/MS analysis. The format is ADME, organism-based. The conditions noted are these: in vivo.
Data set [9] can be described thus: MRT (0 to infinity) in Sprague-Dawley rat at 1 mg/kg, iv measured upto 24 hrs by LC-MS/MS analysis. The format is ADME, organism-based. The conditions noted are these: in vivo.
The nature of data set [10]: Resistant factor, ratio of EC50 for antiviral activity against HIV-1 IIIB harboring reverse transcriptase K103N mutant to EC50 for antiviral activity against wild type HIV-1 IIIB. The format is functional.
The nature of data set [11]: Acute toxicity in 12 hr fasted male CD-1(ICR) mouse assessed as pathological damage in lung at 2 g/Kg, IG measured after 14 days by H and E staining based analysis. Particulars: in vivo, po, 2000 mg/kg, 336 h, time 14 day. Format: tissue-based.
The nature of data set [12]: AUC (0 to t) in Sprague-Dawley rat at 10 mg/kg, po measured upto 24 hrs by LC-MS/MS analysis. Format: ADME, organism-based. On the set-up: dose 10 mg/kg, time < 24 hrs, route po. Particulars: in vivo.
Data set [13] in a line: MRT (0 to t) in Sprague-Dawley rat at 1 mg/kg, iv measured upto 24 hrs by LC-MS/MS analysis. The format is ADME, organism-based. Particulars: in vivo.
The test system of data set [14] is Human immunodeficiency virus 1. Briefly: Antiviral activity against wild type HIV-1 IIIB harboring reverse transcriptase […] mutant infected in human MT4 cells assessed as protection against virus-induced cytopathic effect incubated for 5 days by MTT assay. The format is functional, organism-based. Particulars: Human immunodeficiency virus 1, IIIB, MT4, 120 h.

Data set [15] is described as follows: Half life in Sprague-Dawley rat at 1 mg/kg, iv measured upto 24 hrs by LC-MS/MS analysis. Format: ADME, organism-based. The conditions noted are these: in vivo.

As for `CONC(=O)c1cnc(Nc2ccc(C#N)cc2)nc1Oc1c(C)cc(-c2ccc(C#N)cc2)cc1C`, the Activity result in data set [1], in data set [7] and in data set [11] was “Non-Toxic” each time. Besides, the EC50 (usually the concentration at which the effect is half-maximal) in [2] was found to be 52 nM; in data set [14], 13 nM. Moreover, the time of peak concentration (Tmax) (usually the time from dosing to the highest level) in data set [3] amounted to 2 h. Further, the IC50 (as a rule, the point on the concentration scale where inhibition reaches its midpoint) at Cytochrome P450 1A2 is over 50000 nM; in [5], 47 nM; on Cytochrome P450 2C9, 18500 nM. Further, the “Ratio EC50” value in data set [4] is given as 2.6; in [10], 3.5. Further, the selectivity ratio in [6] is over 17400. Moreover, the MRT inf – broadly, a mean duration of stay, worked out from the concentration-time curve – is 5.21 h in data set [8] and 3.75 h in data set [9]. The AUC(0-t) – broadly, the area under the concentration-time curve up to a stated or last time point – at 24 h in data set [12] amounted to 3570 ng·h/mL. Further, the MRT last (commonly the average time that molecules of a dose stay in the body) at 24 h in data set [13] was determined as 3.56 h. For the same molecule, in data set [15], the half-life (as a rule, the time in which the quantity being followed falls by half) is 3.66 h.
